Assay results reported in patent US20120121692A1, “COMPOUNDS AND COMPOSITIONS COMPRISING CDK INHIBITORS AND METHODS FOR TREATING CANCER” (SHANDONG UNIVERSITY, priority 2009, published 2012).
Like-named read-outs stand apart in the source and are kept apart here.

Legend:
HCT116 cells = experiment: MTT cytotoxicity screening, human colon cancer cell line HCT116; type: cell-based; conditions: Homo sapiens
From the text: Human colon cancer cell line HCT116 can be used for the preliminary cytotoxicity screening of the disclosed compounds as disclosed by Mosmann, T., “Rapid colorimetric assay for cellular growth and survival: application to proliferation and cytotoxicity assays.” J. Immunol. Methods, (1983) 65(1-2): p. 55-63 referred to herein further as the “MTT test” which is incorporated herein by reference in its entirety.
The disclosure of Mosmann recites the following. “MTT 93-(4,5-dimethylthirazol-2-yl)-2,5-diphenyl tetrazolium bromide; Sigman catalog no. M2128) was dissolved in PBS at 5 mg/ml and filtered to sterilize and remove a small amount of insoluble residue present in some batches of MTT. At the times indicated below, stock MTT solution (10 ml per 100 ml) was added to all wells of an assay, and plates were incubated at 37° C. for 4 h. Acid-siopropanol (100 ml of 0.04 N HCl in isopropanol) was added to all wells and mixed thoroughly to dissolve the dark blue crystals. After a few minutes at room temperature to ensure that all crystals were dissolved, the plates were read o a Dynatech MR580Microelisa reader, using a test wavelength of 570 nm, a reference wavelength of 630 nm, and a calibration setting of 1.99 (or 1.0 if the samples were strongly colored). Plates were normally read within 1 h of adding the isopropanol.
“Our final procedure was to add 0.01 ml MTT (5 mg/ml in phosphate-buffered saline) to 0.1 ml cells in growth medium. After 4 h at 37° C. for MTT cleavage, the formazan product was solublilized by the addition of 0.1 ml 0.04 N HCl in isopropanol. Optical density was measured on a Dynatech MR 580 plate reader, using a reference wavelength of 630 nm and a test wavelength of 570 nm.” 3-(4,5-Dimethylthiazol-2-yl)-2,5-diphenyltetrazolium bromide, a tetrazole, can pass through cellular membrane to enter into cells. This tetrazole may be reduced to the purple formazan in the mitochondria of living cells, which can diffuse out to form crystals. This crystal can be dissolved in the dimethyl sulfoxide to form a colored solution. The absorbance of this colored solution can be quantified by measuring at certain wavelength (490 nm) using a spectrophotometer. The quantity of the formazan crystal is proportional to the number of living cells.
As used herein, cells were cultured in McCoy's 5A medium supplemented with 10% heat-inactivated Fetal Bovine Serum (FBS) and 5% Penicillin/Streptomycin solution. McCoy's 5A, 1× (Iwakata & Grace modified) medium with L-Glutamine, DPBS, 1× w/o Ca and Mg, Penicillin/Streptomycin solution, Trypsin EDTA, 1× and PBS, 1× w/o Ca and Mg were purchased from Mediatech, Inc. (USA). FBS was purchased from Hyclone (USA).
The cytotoxicity of the compounds was estimated using the MTT assay. A 96-well plate was seeded with 100 μl medium containing HCT116 cells in suspension at a density of 2.5×10^4 cells/ml. After 24 hours of incubation, the cells were treated with the compounds, which were dissolved in DMSO (dimethyl sulfoxide) as stock solutions and diluted to final concentrations of 100 μM, 50 μM, 25 μM, 12.5 μM, 6.25 μM & 1 μM (for compounds tested in the micromolar concentrations) and 10 μM, 1 μM, 500 nM, 250 nM, 125 nM & 62.5 nM (for compounds tested in the nanomolar concentration range) using medium containing 0.1% DMSO. The final concentration of DMSO in the culture medium was maintained at 0.1%-0.001% (v/v). After 48 hrs incubation in the presence of test compounds, the spent medium was removed and the wells were washed twice with 100 μL of PBS solution. 100 μL of fresh medium and 10 μL of MTT (5 mg/ml in PBS) was added to the wells and incubated at 37° C. in dark for 4 hrs. The formazan product was dissolved by adding 100 μL of 100% DMSO after removing the medium from each well and was stabilized by adding 12.5 μL of Sorensen's glycine buffer to each well. […]

[1] = HCT-116, 48 hrs incubation, absorbance 490 nm, primary screening, read-out: IC50

For `COc1cc(OC)c(C2=CCN(C)CC2)c(O)c1C(=O)/C=C/c1ccc(C#N)cc1` [Compound A15, (E)-3-(4-cyanophenyl)-1-(2-hydroxy-4,6-dimethoxy-3-(1-methyl-1,2,3,6-tetrahydropyridine-4-yl)phenyl)-2-propylene-1-one], the IC50 (HCT116 cells; [1]) was 13.3 µM and the melting point was 125 to 126 °C.

`COc1ccc(/C=C/C(=O)c2c(OC)cc(OC)c(C3=CCN(C)CC3)c2O)c(OC)c1OC` [Compound A16, (E)-1-(2-hydroxy-4,6-dimethoxy-3-(1-methyl-1,2,3,6-tetrahydropyridine-4-yl)phenyl)-3-(2,3-4-trimethoxyphenyl)-2-propylene-1-one] showed an IC50 (HCT116 cells; [1]) of 3.31 µM and a melting point of 145 to 147 °C.

With `COc1cc(/C=C/C(=O)c2c(OC)cc(OC)c(C3=CCN(C)CC3)c2O)cc(OC)c1OC` [Compound A17, (E)-1-(2-hydroxy-4,6-dimethoxy-3-(1-methyl-1,2,3,6-tetrahydropyridine-4-yl)phenyl)-3-(3,4,5-trimethoxyphenyl)-2-propylene-1-one] the IC50 (HCT116 cells; [1]) was 18.4 µM and the melting point was 156 to 158 °C.

Molecule `COc1cc(OC)c(C2=CCNCC2)c(O)c1C(=O)/C=C/c1ccccc1` [Compound B1, 1-(2-hydroxy-4,6-dimethoxy-3-(1,2,3,6-tetrahydropyridine-4-yl)phenyl)-3-phenyl-2-propylene-1-one] has an IC50 (HCT116 cells; [1]) of 8.41 µM, an IC50 (HCT116 cells; HCT-116, further evaluated after secondary screening (Table VIII), read-out: IC50 value) of ~0.1 µM and a melting point of 118 to 120 °C.

For `COc1cc(OC)c(C2=CCNCC2)c(O)c1C(=O)/C=C/c1ccccc1[N+](=O)[O-]` [Compound B3, (E)-1-(2-hydroxy-4,6-dimethoxy-3-(1,2,3,6-tetrahydropyridine-4-yl)phenyl)-3-(2-nitrophenyl)-2-propylene-1-one], the IC50 (HCT116 cells; [1]) was 5.68 µM and the melting point was 128 to 130 °C.

Molecule `COc1cccc(/C=C/C(=O)c2c(OC)cc(OC)c(C3=CCNCC3)c2O)c1OC` [Compound B4, (E)-3-(2,3-dimethoxyphenyl)-1-(2-hydroxy-4,6-dimethoxy-3-(1,2,3,6-tetrahydropyridine-4-yl)phenyl)-2-propylene-1-one] has an IC50 (HCT116 cells; [1]) of 4.47 µM and a melting point of 109 to 110 °C.

Work on `COc1cc(OC)c(C2=CCNCC2)c(O)c1C(=O)/C=C/c1cccc(C)c1` [Compound B5, (E)-1-(2-hydroxy-4,6-dimethoxy-3-(1,2,3,6-tetrahydropyridine-4-yl)phenyl)-3-(3-methylphenyl)-2-propylene-1-one] yielded an IC50 (HCT116 cells; [1]) of 6.13 µM and a melting point of 95 to 96 °C.

With `COc1cccc(/C=C/C(=O)c2c(OC)cc(OC)c(C3=CCNCC3)c2O)c1` [Compound B6, (E)-1-(2-hydroxy-4,6-dimethoxy-3-(1,2,3,6-tetrahydropyridine-4-yl)phenyl)-3-(3-methoxyphenyl)-2-propylene-1-one] the IC50 (HCT116 cells; [1]) was 3.08 µM and the melting point was 99 to 100 °C.

Molecule `COc1cc(OC)c(C2=CCNCC2)c(O)c1C(=O)/C=C/c1cccc(Cl)c1` [Compound B7, (E)-3-(3-chlorophenyl)-1-(2-hydroxy-4,6-dimethoxy-3-(1,2,3,6-tetrahydropyridine-4-yl)phenyl)-2-propylene-1-one] has an IC50 (HCT116 cells; [1]) of 9.97 µM and a melting point of 102 to 103 °C.

With `COc1cc(OC)c(C2=CCNCC2)c(O)c1C(=O)/C=C/c1cccc([N+](=O)[O-])c1` [Compound B8, (E)-1-(2-hydroxy-4,6-dimethoxy-3-(1,2,3,6-tetrahydropyridine-4-yl)phenyl)-3-(3-nitrophenyl)-2-propylene-1-one] the IC50 (HCT116 cells; [1]) was 4.1 µM and the melting point was 199 to 200 °C.

Molecule `COc1cc(OC)c(C2=CCNCC2)c(O)c1C(=O)/C=C/c1ccc(C)cc1` [Compound B9, (E)-1-(2-hydroxy-4,6-dimethoxy-3-(1,2,3,6-tetrahydropyridine-4-yl)phenyl)-3-(4-methylphenyl)-2-propylene-1-one] has an IC50 (HCT116 cells; [1]) of 4.02 µM and a melting point of 98 to 100 °C.

`COc1ccc(/C=C/C(=O)c2c(OC)cc(OC)c(C3=CCNCC3)c2O)cc1` [Compound B10, (E)-1-(2-hydroxy-4,6-dimethoxy-3-(1,2,3,6-tetrahydropyridine-4-yl)phenyl)-3-(4-methoxyphenyl)-2-propylene-1-one] showed an IC50 (HCT116 cells; [1]) of 11.4 µM and a melting point of 90 to 91 °C.
